From PMC10683482, “Offsetting Low-Affinity Carbohydrate Binding with Covalency to Engage Sugar-Specific Proteins for Tumor-Immune Proximity Induction” (ACS Central Science, 2023)

Legend:
anti-23F antibody = test: Mass spectrometry study of anti-23F labelling; format: binding, human; conditions: 10 µM cARM, 2.7 µM anti-23F, 45 hours
Method: To further confirm selectivity, an MS study was conducted to determine the site of labeling (Figures S10 and S11). […] No other labeling site was detected on the light chain; however, the lability of the SO2F-serine/tyrosine linkage to MS sample preparation protocols likely limited complete labeling site coverage. […] Due to the low labeling efficiency of rhamnose-AI-cARM, no labeling site could be identified. […] Determining the selectivity for antirhamnose antibodies in the presence of off-target cell surface proteins will be the focus of future in vivo studies.
Mass Spectrometry Study – Anti-23F Labelling
Anti-23F (2.7 µM) was incubated with 10 µM of Biotin-AI-cAR M 4 or Biotin-SO2F-cAR M 12, or PBS (antibody only) for 45 hours before MS analysis. Analysis was completed by Bioinformatics Solutions
Inc. Briefly, for intact protein analysis each sample was treated with PNGase F to remove glycans followed by LC-MS analysis. To determine site of labelling, each sample was digested with tryspin, chymostrypsin, and pepsin then analyzed by LC-MS/MS on a timsTOF Pro. Peptide spectra were mapped to a known antibody sequence (anti -23F antibody, Creative Biolabs - PABX-173). No labelling was identified with acyl imidazole containing cARM 4. […]
approxima tely 30% labelling post MS protocol (Figure S11)
Figure S10. Sample analysis of peptide mapping of anti-23F heavy chain. Modification with cARM 12 is […]
(1 picture or pasted object on this page, not shown here)

[1] = test system: human IgG (polyclonal antirhamnose antibodies); test: BLI monitoring of covalent reaction with human IgG (Figure 4B); format: binding; conditions: 10 μM cARM, 230 μM human IgG, up to 25 h
Excerpt: The design of rhamnose-SO2F-cARM was again supported by in-silico docking and predicted to preorganize electrophilic SO2F proximal to lysine 104 and serine 53 of the anti-23F heavy chain as well as tyrosine 32 of the light chain (Figure S3). To evaluate the capacity of rhamnose-SO2F-cARMs to specifically label polyclonal antirhamnose antibodies, a tool cARM with a biotin TBD was synthesized (compound 12, Figure 4A, Scheme S5). As an orthogonal kinetics assay to fluorescent gels, tool compound 12 labeling kinetics was first evaluated using an in-house BLI assay and compared to acyl imidazole cARM and ARM analogs. […] Solutions were immediately loaded onto streptavidin probes (Figure 4B, Figure S8). In this assay, rhamnose competition blocks noncovalent antirhamnose recruitment, thus the signal amplitude is directly proportional to the covalently labeled antibody product.
Figure 4 Selectivity and kinetic analysis of optimized Rha-SO2F-cARMs A. Chemical structures of tool compounds used in this study. B. cARM 12 (10 μM) was incubated with human IgG or BSA (230 μM) then diluted 8× with 100 mM competitor rhamnose spiked kinetics buffer and loaded onto streptavidin probes in BLI. The association plateau was plotted against time to yield the % labeled vs time covalent labeling curve C. Kinetic fluorescence SDS-PAGE assay similar to that in Figure 2D. […]

C[C@@H]1O[C@@H](OCc2cn(CCc3cn(C(=O)OCCOCCOCCOCCOCCOCCOCCOCCNC(=O)CCCC[C@@H]4SC[C@@H]5NC(=O)N[C@@H]54)cn3)nn2)[C@H](O)[C@H](O)[C@H]1O [compound 4]
site of labelling (LC-MS/MS peptide mapping) (anti-23F antibody): No labelling | progress of labeling reaction [1]: still in the linear phase of the reaction
